Results reported in patent publication US20090087909A1, “Use of Trehalose in Conifer Somatic Embryogenesis to Increase Germination Vigor” (Weyerhaeuser Company, priority 2007, published 2009).

Tested on: Somatic embryos of Loblolly pine, genotypes C and D
Assay: Germination rate, yield, germinants/ml, root and hypocotyl length, genotypes C and D (Example 4)
Type: cell-based, Loblolly pine (Pinus taeda)
Procedure: Methods: Somatic embryos of Loblolly pine, genotypes C and D, were cultured as described in EXAMPLE 1 up to incubation in the maintenance media. After incubation in maintenance media using the methods described in EXAMPLE 1, advanced early stage somatic embryos were plated on semi-solid development medium BM3 (with 25 ppm ABA, 1% glucose and 2.5% maltose) at 25 embryos per plate, 15 plates per genotype. Specifically, at five weeks after plating, the media for 10 treatment plates per genotype were replaced with modified development media BM3 containing 5 ppm ABA instead of 25 ppm ABA. […]
After development, the embryos were transferred to stratification medium BM4, and germinated on medium BM5, as described in EXAMPLE 1. After 6 weeks incubation on germination medium, the embryos were assessed for germination rate, root length, hypocotyls length, and epicotyl length. […]
Plate yield was determined during singulation at eight weeks by counting the number of embryos present. […]
Data for germination rate was analyzed with a generalized linear model with a logit link. Yield, germinants/ml, root length, and hypocotyl length data were analyzed with a mixed linear model. […] When variance among all ten treatments was detected, the response means for the trehalose treatments only were compared using Fisher's LSD for multiple comparisons.

**Q.** How did the “Hypocotyl Length LS mean” value (combined genotypes C and D) turn out when `OC[C@H]1O[C@H](O[C@H]2O[C@H](CO)[C@@H](O)[C@H](O)[C@H]2O)[C@H](O)[C@@H](O)[C@@H]1O` [trehalose, α-D-glucopyranosyl-[1,1]-α-D-glucopyranoside] was run?
**A.** The value was “positive effect on the hypocotyl length”.

**Q.** And the “Root Length genotype C mean” value (genotype C)?
**A.** Its value is “induces greater root length development”.
